This note sets out measurements from the supplement of paper PMC12350171.

For assay [1], the system named is Escherichia coli ED1a. Kind of assay: IC25 growth inhibition; higher = less potent. In outline:
(§1)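 Overnight monocultures grown in mGAM were moved into pre-reduced plates containing twofold drug dilutions, at a starting OD578 of 0.01 with 1% DMSO (or water). Plates were kept anaerobic and read hourly at OD578 in a plate reader, with at least three biological replicates. For each concentration, the median area under the growth curve was made monotonic, and IC25 was the lowest concentration whose median fell below a cutoff, reported as a tested interval. That cutoff was 0.75.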

Assay [2] has as its system Fusobacterium nucleatum subsp. Nucleatum. Kind of assay: IC25 growth inhibition; higher = less potent. In short, it runs like this:
as §1

Assay [3] has as its system Clostridium ramosum. As to the kind of experiment: IC25 growth inhibition; higher = less potent. In outline:
as §1

Assay [4] deals with Coprococcus comes. Kind of assay: IC25 growth inhibition; higher = less potent. In outline:
as §1

Assay [5] relates to Bacteroides uniformis. Kind of assay: IC25 growth inhibition; higher = less potent. In outline:
as §1

Assay [6] relates to Ruminococcus gnavus. Kind of assay: IC25 growth inhibition; higher = less potent. In outline: as §1
Assay [7] concerns Roseburia intestinalis. Kind of assay: IC25 growth inhibition; higher = less potent. In short, it runs like this:
as §1

Assay [8] relates to Bacteroides vulgatus. As to the kind of experiment: IC25 growth inhibition; higher = less potent. In outline:
as §1

Assay [9] deals with Streptococcus parasanguinis. Kind of assay: IC25 growth inhibition; higher = less potent. In short, it runs like this:
as §1

Assay [10] concerns Bacteroides thetaiotaomicron. As to the kind of experiment: IC25 growth inhibition; higher = less potent. In outline: as §1
Assay [11] deals with Dorea formicigenerans. As to the kind of experiment: IC25 growth inhibition; higher = less potent. In short, it runs like this: as §1
Assay [12] has as its system Clostridium bolteae. Kind of assay: IC25 growth inhibition; higher = less potent. In outline:
as §1

The subject of assay [13] is Streptococcus salivarius. As to the kind of experiment: IC25 growth inhibition; higher = less potent. In short, it runs like this:
as §1

Assay [14] deals with Vibrio cholerae. As to the kind of experiment: IC25 growth inhibition; higher = less potent. In outline: as §1
Assay [15] concerns Parabacteroides merdae. Kind of assay: IC25 growth inhibition; higher = less potent. In outline: as §1
In assay [16] the test system is Yersinia pseudotuberculosis. As to the kind of experiment: IC25 growth inhibition; higher = less potent. In short, it runs like this: as §1
The subject of assay [17] is Bacteroides fragilis NT. Kind of assay: IC25 growth inhibition; higher = less potent. In outline: as §1
The subject of assay [18] is Shigella flexneri. As to the kind of experiment: IC25 growth inhibition; higher = less potent. In short, it runs like this:
as §1

Assay [19] has as its system Yersinia enterocolitica WA-314. Kind of assay: IC25 growth inhibition; higher = less potent. In outline:
as §1

Assay [20] has as its system Clostridium saccharolyticum. As to the kind of experiment: IC25 growth inhibition; higher = less potent. In outline: as §1
For assay [21], the system named is Clostridium perfringens. Kind of assay: IC25 growth inhibition; higher = less potent. In outline: as §1
The test system of assay [22] is Salmonella enterica typhimurium. Kind of assay: IC25 growth inhibition; higher = less potent. In short, it runs like this:
as §1

For assay [23], the system named is Eubacterium rectale. As to the kind of experiment: IC25 growth inhibition; higher = less potent. In outline:
as §1

The test system of assay [24] is Collinsella aerofaciens. Kind of assay: IC25 growth inhibition; higher = less potent. In outline: as §1
Assay [25] relates to Com21 synthetic gut community. As to the kind of experiment: community biomass OD578 after 24 h drug treatment relative to untreated (fraction of untreated control); higher = more community growth. Conditions: community: Com21 (Com20 + E. coli ED1a). As for the experimental part:
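Com21 (Com20 plus E. coli ED1a) was treated with drug for 24 h under anaerobic conditions in mGAM. Community OD578 was then measured and normalised to untreated Com21; mean of 3 biological replicates.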

Where only a bound is given, the exact number is not on record here.
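Wherever IC25 growth inhibition is given: lowest concentration where monotonic median growth AUC falls below 0.75 of drug-free control.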

`CCN(CC)CCOc1ccc(C(=C(Cl)c2ccccc2)c2ccccc2)cc1` [Clomifen]: the IC25 growth inhibition in assay [1] was > 160 µM; in assay [2], ≤ 80 µM; in assay [3], ≤ 40 µM; in assay [4] it was ≤ 40 µM; in assay [5], ≤ 40 µM; in assay [6], ≤ 10 µM. Besides, the IC25 growth inhibition in assay [7] was ≤ 20 µM; in assay [8] it was ≤ 40 µM; in assay [9], ≤ 80 µM; in assay [10], ≤ 40 µM; in assay [11], ≤ 10 µM; in assay [12], ≤ 80 µM. Also, the IC25 growth inhibition in assay [13] is ≤ 40 µM; in assay [14], ≤ 80 µM; in [15] it was ≤ 40 µM; in assay [16], > 40 µM; in assay [17], ≤ 40 µM; in [18] it was > 80 µM. The IC25 growth inhibition in assay [19] was > 80 µM; in [20] it was ≤ 40 µM; in assay [21] it was ≤ 40 µM; in assay [22], > 160 µM; in assay [23], ≤ 40 µM; in [24] it was ≤ 20 µM.
On to `CCN(CC)CCOc1ccc(C(=C(Cl)c2ccccc2)c2ccccc2)cc1` [Clomiphene], for which the “community biomass OD578” value in assay [25] (drug pretreatment concentration 10 µM) was 0.947; in assay [25] (drug pretreatment concentration 20 µM), 0.955; in [25] (drug pretreatment concentration 40 µM) it was 0.845; in assay [25] (drug pretreatment concentration 80 µM), 0.398; in assay [25] (drug pretreatment concentration 160 µM), 0.335.
Turning to `CCOC(=O)C1=C(C)NC(C)=C(C(=O)OC)C1c1cccc(Cl)c1Cl` (stereo unspecified) [Felodipine], the IC25 growth inhibition in assay [1] is > 40 µM; in [2] it was > 40 µM; in assay [4] it was > 40 µM; in assay [5], ≤ 20 µM; in [6], ≤ 40 µM; in [7], ≤ 10 µM. In addition, the IC25 growth inhibition in assay [8] is ≤ 20 µM; in [9], ≤ 40 µM; in assay [10] it was ≤ 40 µM; in [11], ≤ 20 µM; in [13], ≤ 10 µM; in assay [14] it was > 80 µM. The IC25 growth inhibition in assay [15] was ≤ 40 µM; in [16], > 80 µM; in [17], ≤ 20 µM; in [18] it was > 80 µM; in assay [19], > 20 µM; in assay [22], > 20 µM. The IC25 growth inhibition was ≤ 20 µM in assay [23] and ≤ 40 µM in assay [24].
As to `CNCCC(Oc1ccc(C(F)(F)F)cc1)c1ccccc1` (stereo unspecified) [Fluoxetine], the IC25 growth inhibition is > 160 µM in assay [1]; ≤ 80 µM in assay [2]; > 160 µM in assay [3]; ≤ 160 µM in [4]; ≤ 80 µM in [5]; ≤ 80 µM in assay [6]. In addition, the IC25 growth inhibition in assay [7] is ≤ 80 µM; in assay [8], ≤ 80 µM; in assay [9], > 160 µM; in [10], ≤ 160 µM; in assay [11], ≤ 40 µM; in [12] it was > 160 µM. Besides, the IC25 growth inhibition in assay [13] was ≤ 80 µM; in [14], ≤ 160 µM; in assay [15], ≤ 80 µM; in assay [16] it was ≤ 160 µM; in assay [17], ≤ 160 µM; in assay [18] it was > 160 µM. The IC25 growth inhibition in assay [19] was ≤ 160 µM; in assay [20], ≤ 160 µM; in assay [21], ≤ 160 µM; in assay [22], > 160 µM; in assay [23], ≤ 40 µM; in assay [24] it was ≤ 160 µM.
For the compound `CN(C)C(=O)C(CCN1CCC(O)(c2ccc(Cl)cc2)CC1)(c1ccccc1)c1ccccc1` [Loperamide], the IC25 growth inhibition in [1] was > 160 µM; in assay [2] it was > 80 µM; in [3], > 80 µM; in assay [4] it was > 80 µM; in assay [5] it was ≤ 80 µM; in assay [6], ≤ 80 µM. Besides, the IC25 growth inhibition was ≤ 40 µM in assay [7]; ≤ 80 µM in [8]; > 80 µM in [9]; ≤ 80 µM in assay [10]; ≤ 80 µM in assay [11]; > 80 µM in [12]. For the same compound, the IC25 growth inhibition in assay [13] is > 80 µM; in [14] it was > 80 µM; in assay [15], ≤ 80 µM; in assay [16], > 80 µM; in assay [17], ≤ 80 µM; in [18] it was > 80 µM. Also, the IC25 growth inhibition in [19] is > 80 µM; in [20], > 80 µM; in [21] it was > 80 µM; in [22], > 80 µM; in assay [23], ≤ 40 µM; in assay [24], ≤ 80 µM.
`Cc1c(N(C)CS(=O)(=O)O)c(=O)n(-c2ccccc2)n1C` [Metamizol]: the IC25 growth inhibition in assay [1], in assay [2], in [3], in assay [4], in assay [5] and in assay [6] was > 160 µM in each case. The IC25 growth inhibition in assay [7], in assay [8], in assay [9], in assay [10], in assay [11] and in [12] was > 160 µM throughout. Moreover, the IC25 growth inhibition in assay [13], in assay [14], in assay [15], in assay [16], in assay [17] and in [18] was > 160 µM throughout. Further, the IC25 growth inhibition in [19], in assay [20], in assay [21], in assay [22], in assay [23] and in [24] was > 160 µM each time.
